In PubChem BioAssay (NCI):
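Step 1: Grow cells in 96-well plates. Step 2: Expose to compound for 48 hours at 5 concentrations. Step 3: Interpolate endpoints linearly; if unreached, use highest concentration. GI50 = concentration required for 50% inhibition of growth. The concentration for full growth arrest is given as TGI.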

Legend:
Assay in all cases: growth of human tumour cells (NCI), 48 h
786-0 renal = tested on: 786-0 renal
A498 renal = tested on: A498 renal
A549 NSCLC = tested on: A549 NSCLC
ACHN renal = tested on: ACHN renal
BT-549 breast = tested on: BT-549 breast
CAKI-1 renal = tested on: CAKI-1 renal
COLO 205 colon = tested on: COLO 205 colon
DU-145 prostate = tested on: DU-145 prostate
EKVX NSCLC = tested on: EKVX NSCLC
HCC-2998 colon = tested on: HCC-2998 colon
HCT-116 colon = tested on: HCT-116 colon
HCT-15 colon = tested on: HCT-15 colon
HL-60(TB) leukemia = tested on: HL-60(TB) leukemia
HOP-62 NSCLC = tested on: HOP-62 NSCLC
HOP-92 NSCLC = tested on: HOP-92 NSCLC
HS 578T breast = tested on: HS 578T breast
HT29 colon = tested on: HT29 colon
IGROV1 ovarian = tested on: IGROV1 ovarian
KM12 colon = tested on: KM12 colon
LOX IMVI melanoma = tested on: LOX IMVI melanoma
M14 melanoma = tested on: M14 melanoma
MALME-3M melanoma = tested on: MALME-3M melanoma
MCF7 breast = tested on: MCF7 breast
MDA-MB-231 breast = tested on: MDA-MB-231 breast
MDA-MB-435 = tested on: MDA-MB-435
MOLT-4 leukemia = tested on: MOLT-4 leukemia
NCI-H226 lung = tested on: NCI-H226 lung
NCI-H23 lung = tested on: NCI-H23 lung

Question: For `NC(=O)c1cc([N+](=O)[O-])c(Cl)c([N+](=O)[O-])c1`, which GI50 (786-0 renal) is on record?
Answer: The GI50 was 1.96 µM.

Question: What about the TGI (786-0 renal) of the same compound?
Answer: Its TGI is 3.56 µM.

Question: What about the GI50 (A498 renal) of the same compound?
Answer: The GI50 was 13.8 µM.

Question: And the TGI (A498 renal)?
Answer: Its TGI is 26.8 µM.

Question: What about the GI50 (A549 NSCLC) of the same compound?
Answer: Its GI50 is 16.9 µM.

Question: And the TGI (A549 NSCLC)?
Answer: Its TGI is 32.2 µM.

Question: And the GI50 (ACHN renal)?
Answer: The GI50 was 1.87 µM.

Question: And the TGI (ACHN renal)?
Answer: Its TGI is 3.37 µM.

Question: What about the GI50 (BT-549 breast) of the same compound?
Answer: Its GI50 is 2.52 µM.

Question: What about the TGI (BT-549 breast) of the same compound?
Answer: The TGI was 5.56 µM.

Question: What about the GI50 (CAKI-1 renal) of the same compound?
Answer: Its GI50 is 2.59 µM.

Question: What about the TGI (CAKI-1 renal) of the same compound?
Answer: Its TGI is 7.12 µM.

Question: And the GI50 (COLO 205 colon)?
Answer: The GI50 was 1.99 µM.

Question: What about the TGI (COLO 205 colon) of the same compound?
Answer: The TGI was 3.5 µM.

Question: And the GI50 (DU-145 prostate)?
Answer: Its GI50 is 2.15 µM.

Question: And the TGI (DU-145 prostate)?
Answer: The TGI was 3.92 µM.

Question: What about the GI50 (EKVX NSCLC) of the same compound?
Answer: Its GI50 is 17.4 µM.

Question: And the TGI (EKVX NSCLC)?
Answer: The TGI was 35.7 µM.

Question: What about the GI50 (HCC-2998 colon) of the same compound?
Answer: The GI50 was 2.61 µM.

Question: What about the TGI (HCC-2998 colon) of the same compound?
Answer: Its TGI is 7.46 µM.

Question: What about the GI50 (HCT-116 colon) of the same compound?
Answer: Its GI50 is 1.91 µM.

Question: What about the TGI (HCT-116 colon) of the same compound?
Answer: Its TGI is 3.53 µM.

Question: What about the GI50 (HCT-15 colon) of the same compound?
Answer: The GI50 was 1.98 µM.

Question: And the TGI (HCT-15 colon)?
Answer: The TGI was 3.92 µM.

Question: What about the GI50 (HL-60(TB) leukemia) of the same compound?
Answer: The GI50 was 3.21 µM.

Question: And the TGI (HL-60(TB) leukemia)?
Answer: The TGI was 8.55 µM.

Question: And the GI50 (HOP-62 NSCLC)?
Answer: Its GI50 is 5.49 µM.

Question: And the TGI (HOP-62 NSCLC)?
Answer: Its TGI is 17.8 µM.

Question: What about the GI50 (HOP-92 NSCLC) of the same compound?
Answer: The GI50 was 1.96 µM.

Question: And the TGI (HOP-92 NSCLC)?
Answer: Its TGI is 4.18 µM.

Question: And the GI50 (HS 578T breast)?
Answer: Its GI50 is 11.9 µM.

Question: And the TGI (HS 578T breast)?
Answer: Its TGI is 29.4 µM.

Question: What about the GI50 (HT29 colon) of the same compound?
Answer: The GI50 was 2.58 µM.

Question: What about the TGI (HT29 colon) of the same compound?
Answer: The TGI was 5.51 µM.

Question: And the GI50 (IGROV1 ovarian)?
Answer: The GI50 was 3.01 µM.

Question: What about the TGI (IGROV1 ovarian) of the same compound?
Answer: The TGI was 7.9 µM.

Question: What about the GI50 (KM12 colon) of the same compound?
Answer: Its GI50 is 4.69 µM.

Question: And the TGI (KM12 colon)?
Answer: Its TGI is 16.3 µM.

Question: What about the GI50 (LOX IMVI melanoma) of the same compound?
Answer: Its GI50 is 1.86 µM.

Question: What about the TGI (LOX IMVI melanoma) of the same compound?
Answer: The TGI was 3.7 µM.

Question: What about the GI50 (M14 melanoma) of the same compound?
Answer: Its GI50 is 1.91 µM.

Question: What about the TGI (M14 melanoma) of the same compound?
Answer: Its TGI is 4.72 µM.

Question: And the GI50 (MALME-3M melanoma)?
Answer: The GI50 was 2.27 µM.

Question: What about the TGI (MALME-3M melanoma) of the same compound?
Answer: Its TGI is 4.54 µM.

Question: What about the GI50 (MCF7 breast) of the same compound?
Answer: The GI50 was 1.97 µM.

Question: And the TGI (MCF7 breast)?
Answer: The TGI was 4.06 µM.

Question: And the GI50 (MDA-MB-231 breast)?
Answer: Its GI50 is 1.96 µM.

Question: What about the TGI (MDA-MB-231 breast) of the same compound?
Answer: Its TGI is 3.84 µM.

Question: What about the GI50 (MDA-MB-435) of the same compound?
Answer: Its GI50 is 5.99 µM.

Question: What about the TGI (MDA-MB-435) of the same compound?
Answer: Its TGI is 19.2 µM.

Question: What about the GI50 (MOLT-4 leukemia) of the same compound?
Answer: Its GI50 is 2.62 µM.

Question: What about the TGI (MOLT-4 leukemia) of the same compound?
Answer: The TGI was 5.68 µM.

Question: What about the GI50 (NCI-H226 lung) of the same compound?
Answer: The GI50 was 1.68 µM.

Question: And the TGI (NCI-H226 lung)?
Answer: Its TGI is 3.22 µM.

Question: And the GI50 (NCI-H23 lung)?
Answer: Its GI50 is 2.78 µM.

Question: And the TGI (NCI-H23 lung)?
Answer: The TGI was 8.32 µM.
